Data from ChEMBL document CHEMBL3046957, “Synthesis of new oxadiazole derivatives as anti-inflammatory, analgesic, and antimicrobial agents” (2013).

Assays:
Type in all cases: functional
Pseudomonas aeruginosa [1] = test: Antibacterial activity against Pseudomonas aeruginosa assessed as growth inhibition at 50 ug/mL after 24 to 48 hr by cup-plate method; conditions: read-out: DIZ
Candida albicans [2] = test: Antifungal activity against Candida albicans assessed as growth inhibition at 50 ug/mL after 24 hr by cup-plate method; conditions: read-out: DIZ
Mus musculus [3] = test: Analgesic activity in Swiss albino Mus musculus (mouse) assessed as latency time of heat-induced paw licking/jumping behaviour at 10 mg/kg after 1 hr by Eddy's hot plate method (reference value: 4.74 +/- 0.21 secs)
Escherichia coli [4] = test: Antibacterial activity against Escherichia coli assessed as growth inhibition at 100 ug/mL after 24 to 48 hr by cup-plate method; conditions: read-out: DIZ
Aspergillus niger [5] = test: Antifungal activity against Aspergillus niger assessed as growth inhibition at 50 ug/mL after 24 hr by cup-plate method; conditions: read-out: DIZ
Candida albicans [6] = test: Antifungal activity against Candida albicans assessed as growth inhibition at 100 ug/mL after 24 hr by cup-plate method; conditions: read-out: DIZ
Rattus norvegicus [7] = test: Anti-inflammatory activity in Wistar albino Rattus norvegicus (rat) assessed as inhibition of carrageenan-induced paw edema at 10 mg/kg, po administered 30 min prior to carrageenan challenge measured after 3 hr by plethysmometric analysis relative to untreated control
Pseudomonas aeruginosa [8] = test: Antibacterial activity against Pseudomonas aeruginosa assessed as growth inhibition at 100 ug/mL after 24 to 48 hr by cup-plate method; conditions: read-out: DIZ
Rattus norvegicus [9] = test: Anti-inflammatory activity in Wistar albino Rattus norvegicus (rat) assessed as inhibition of carrageenan-induced paw edema at 10 mg/kg, po administered 30 min prior to carrageenan challenge measured after 1 hr by plethysmometric analysis relative to untreated control
Bacillus subtilis [10] = test: Antibacterial activity against Bacillus subtilis assessed as growth inhibition at 100 ug/mL after 24 to 48 hr by cup-plate method; conditions: read-out: DIZ
Escherichia coli [11] = test: Antibacterial activity against Escherichia coli assessed as growth inhibition at 50 ug/mL after 24 to 48 hr by cup-plate method; conditions: read-out: DIZ
Mus musculus [12] = test: Analgesic activity in Swiss albino Mus musculus (mouse) assessed as latency time of heat-induced paw licking/jumping behaviour at 10 mg/kg after 2 hr by Eddy's hot plate method (reference value: 4.86 +/- 0.18 secs)
Rattus norvegicus [13] = test: Anti-inflammatory activity in Wistar albino Rattus norvegicus (rat) assessed as inhibition of carrageenan-induced paw edema at 10 mg/kg, po administered 30 min prior to carrageenan challenge measured after 1.5 hr by plethysmometric analysis relative to untreated control
Bacillus subtilis [14] = test: Antibacterial activity against Bacillus subtilis assessed as growth inhibition at 50 ug/mL after 24 to 48 hr by cup-plate method; conditions: read-out: DIZ
Staphylococcus aureus [15] = test: Antibacterial activity against Staphylococcus aureus assessed as growth inhibition at 50 ug/mL after 24 to 48 hr by cup-plate method; conditions: read-out: DIZ
Rattus norvegicus [16] = test: Anti-inflammatory activity in Wistar albino Rattus norvegicus (rat) assessed as inhibition of carrageenan-induced paw edema at 10 mg/kg, po administered 30 min prior to carrageenan challenge measured after 2 hr by plethysmometric analysis relative to untreated control
Staphylococcus aureus [17] = test: Antibacterial activity against Staphylococcus aureus assessed as growth inhibition at 100 ug/mL after 24 to 48 hr by cup-plate method; conditions: read-out: DIZ
Mus musculus [18] = test: Analgesic activity in Swiss albino Mus musculus (mouse) assessed as latency time of heat-induced paw licking/jumping behaviour at 10 mg/kg after 0.5 hr by Eddy's hot plate method (reference value: 4.17 +/- 0.04 secs)
Aspergillus niger [19] = test: Antifungal activity against Aspergillus niger assessed as growth inhibition at 100 ug/mL after 24 hr by cup-plate method; conditions: read-out: DIZ
Mus musculus [20] = test: Analgesic activity in Swiss albino Mus musculus (mouse) assessed as latency time of heat-induced paw licking/jumping behaviour at 10 mg/kg after 4 hr by Eddy's hot plate method (reference value: 4.57 +/- 0.11 secs)
Rattus norvegicus [21] = test: Anti-inflammatory activity in Wistar albino Rattus norvegicus (rat) assessed as inhibition of carrageenan-induced paw edema at 10 mg/kg, po administered 30 min prior to carrageenan challenge measured after 0.5 hr by plethysmometric analysis relative to untreated control

SMILES	zone of inhibition at 50 µg/mL (Pseudomonas aeruginosa [1]) [mm]	zone of inhibition at 50 µg/mL (Candida albicans [2]) [mm]	Time (Mus musculus [3]) [s]	zone of inhibition at 100 µg/mL (Escherichia coli [4]) [mm]	zone of inhibition at 50 µg/mL (Aspergillus niger [5]) [mm]	zone of inhibition at 100 µg/mL (Candida albicans [6]) [mm]	inhibition in vivo at 10 mg/kg (Rattus norvegicus [7]) [%]	zone of inhibition at 100 µg/mL (Pseudomonas aeruginosa [8]) [mm]	inhibition in vivo at 10 mg/kg (Rattus norvegicus [9]) [%]	zone of inhibition at 100 µg/mL (Bacillus subtilis [10]) [mm]	zone of inhibition at 50 µg/mL (Escherichia coli [11]) [mm]	Time (Mus musculus [12]) [s]	inhibition in vivo at 10 mg/kg (Rattus norvegicus [13]) [%]	zone of inhibition at 50 µg/mL (Bacillus subtilis [14]) [mm]	zone of inhibition at 50 µg/mL (Staphylococcus aureus [15]) [mm]	inhibition in vivo at 10 mg/kg (Rattus norvegicus [16]) [%]	zone of inhibition at 100 µg/mL (Staphylococcus aureus [17]) [mm]	Time (Mus musculus [18]) [s]	zone of inhibition at 100 µg/mL (Aspergillus niger [19]) [mm]	Time (Mus musculus [20]) [s]	also measured
COc1ccc(F)cc1-c1cccc(-c2nn(CCCC#N)c(=O)o2)c1	11	10	5.64	16	12	16	85	14	44	14	11	7.11	59	13	10	71	14	5.71	14	7.08	inhibition in vivo at 10 mg/kg (Rattus norvegicus [21]): 29%
COc1ccc(F)cc1-c1cccc(-c2nn(CCOS(=O)(=O)c3ccc(Cl)c(Cl)c3)c(=O)o2)c1	12	3	4.48	19	7	9	66	15	39	17	12	5.72	51	10	12	64	15	4.95	10	5.55	inhibition in vivo at 10 mg/kg (Rattus norvegicus [21]): 25%
COc1ccc(F)cc1-c1cccc(-c2nn(CCCN)c(=O)o2)c1	17	5	4.62	16	10	12	77	21	43	19	15	6.84	55	12	12	66	17	4.93	12	5.49	inhibition in vivo at 10 mg/kg (Rattus norvegicus [21]): 29%
